Species on record: Rattus norvegicus
Assay: DrugMatrix - Regimen: Daily Repeat
Type: toxicity, organism-based, Sprague-Dawley
Set-up: regimen Daily Repeat, gender Male, age 6-8 weeks
Conditions: in vivo, po, route oral GAVAGE, […]; for ABSOLUTE BASOPHIL / ABSOLUTE EOSINOPHIL / ABSOLUTE LYMPHOCYTE / ABSOLUTE MONOCYTE / ABSOLUTE SEGMENTED NEUTROPHIL / BASOPHIL / EOSINOPHIL / ERYTHROCYTE COUNT / HEMATOCRIT / HEMOGLOBIN / LEUKOCYTE COUNT / LYMPHOCYTE / MEAN CORPUSCULAR HEMOGLOBIN / MEAN CORPUSCULAR HEMOGLOBIN CONCENTRATION / MEAN CORPUSCULAR VOLUME / MONOCYTE / NEUTROPHIL / NUCLEATED RED BLOOD CELLS / PLATELET COUNT: tissue Blood; for ALANINE AMINOTRANSFERASE / ALBUMIN / ALKALINE PHOSPHATASE / ASPARTATE AMINOTRANSFERASE / BLOOD UREA NITROGEN / CARBON DIOXIDE / CHLORIDE / CHOLESTEROL / CREATINE PHOSPHOKINASE / CREATININE / GLUCOSE / LACTATE DEHYDROGENASE / LIPASE / PHOSPHORUS / POTASSIUM / SODIUM / TOTAL BILIRUBIN / TOTAL PROTEIN / URIC ACID: tissue Plasma
[1] = 0 mg/kg, 72 h, dose level Control, time 3 day
[2] = 0 mg/kg, 120 h, dose level Control, time 5 day
[3] = 300 mg/kg, 72 h, dose level High, time 3 day

SMILES: CC(C)c1c(C(=O)Nc2ccccc2)c(-c2ccccc2)c(-c2ccc(F)cc2)n1CC[C@@H](O)C[C@@H](O)CC(=O)O [ATORVASTATIN]
- ABSOLUTE BASOPHIL [1]: 0 CELLS/uL
- ABSOLUTE EOSINOPHIL [1]: 14 CELLS/uL
- ABSOLUTE LYMPHOCYTE [1]: 11144.67 CELLS/uL
- ABSOLUTE MONOCYTE [1]: 22.5 CELLS/uL
- ABSOLUTE SEGMENTED NEUTROPHIL [1]: 535.5 CELLS/uL
- BASOPHIL [1]: 0%
- EOSINOPHIL [1]: 0.17%
- ERYTHROCYTE COUNT [1]: 5.08 x10E6/uL
- HEMATOCRIT [1]: 32.32%
- HEMOGLOBIN [1]: 12.87 G/DL
- LEUKOCYTE COUNT [1]: 11.72 x10E3/uL
- LYMPHOCYTE [1]: 94.67%
- MEAN CORPUSCULAR HEMOGLOBIN [1]: 25.37 pg
- MEAN CORPUSCULAR HEMOGLOBIN CONCENTRATION [1]: 39.85 G/DL
- MEAN CORPUSCULAR VOLUME [1]: 63.58 fL
- MONOCYTE [1]: 0.17%
- NEUTROPHIL [1]: 5%
- NUCLEATED RED BLOOD CELLS [1]: 0 /100WBC
- PLATELET COUNT [1]: 1084 x10E3/uL
- ALANINE AMINOTRANSFERASE [1]: 67.5 u/L
- ALBUMIN [1]: 4.02 G/DL
- ALKALINE PHOSPHATASE [1]: 374.17 u/L
- ASPARTATE AMINOTRANSFERASE [1]: 83.5 u/L
- BLOOD UREA NITROGEN [1]: 14.5 mg/dL
- CARBON DIOXIDE [1]: 30 mmol/L
- CHLORIDE [1]: 100.5 MEQ/L
- CHOLESTEROL [1]: 71.33 mg/dL
- CREATINE PHOSPHOKINASE [1]: 268.33 u/L
- CREATININE [1]: 0.16 mg/dL
- GLUCOSE [1]: 170.5 mg/dL
- LACTATE DEHYDROGENASE [1]: 81.17 u/L
- LIPASE [1]: 16.67 u/L
- PHOSPHORUS [1]: 10.07 mg/dL
- POTASSIUM [1]: 5.03 MEQ/L
- SODIUM [1]: 142.92 MEQ/L
- TOTAL BILIRUBIN [1]: 0.17 mg/dL
- TOTAL PROTEIN [1]: 5.63 G/DL
- URIC ACID [1]: 0.5 mg/dL
- ABSOLUTE BASOPHIL [2]: 0 CELLS/uL
- ABSOLUTE EOSINOPHIL [2]: 37.5 CELLS/uL
- ABSOLUTE LYMPHOCYTE [2]: 8049.5 CELLS/uL
- ABSOLUTE MONOCYTE [2]: 82.83 CELLS/uL
- ABSOLUTE SEGMENTED NEUTROPHIL [2]: 646.83 CELLS/uL
- BASOPHIL [2]: 0%
- EOSINOPHIL [2]: 0.5%
- ERYTHROCYTE COUNT [2]: 5.36 x10E6/uL
- HEMATOCRIT [2]: 33.9%
- HEMOGLOBIN [2]: 13.02 G/DL
- LEUKOCYTE COUNT [2]: 8.82 x10E3/uL
- LYMPHOCYTE [2]: 90.17%
- MEAN CORPUSCULAR HEMOGLOBIN [2]: 24.32 pg
- MEAN CORPUSCULAR HEMOGLOBIN CONCENTRATION [2]: 38.42 G/DL
- MEAN CORPUSCULAR VOLUME [2]: 63.32 fL
- MONOCYTE [2]: 1.17%
- NEUTROPHIL [2]: 8.17%
- NUCLEATED RED BLOOD CELLS [2]: 0.17 /100WBC
- PLATELET COUNT [2]: 1231.5 x10E3/uL
- ALANINE AMINOTRANSFERASE [2]: 62 u/L
- ALBUMIN [2]: 3.97 G/DL
- ALKALINE PHOSPHATASE [2]: 303.67 u/L
- ASPARTATE AMINOTRANSFERASE [2]: 84.5 u/L
- BLOOD UREA NITROGEN [2]: 14.83 mg/dL
- CARBON DIOXIDE [2]: 31.83 mmol/L
- CHLORIDE [2]: 97 MEQ/L
- CHOLESTEROL [2]: 68.83 mg/dL
- CREATINE PHOSPHOKINASE [2]: 411.33 u/L
- CREATININE [2]: 0.16 mg/dL
- GLUCOSE [2]: 170.17 mg/dL
- LACTATE DEHYDROGENASE [2]: 88.5 u/L
- LIPASE [2]: 9.5 u/L
- PHOSPHORUS [2]: 9.98 mg/dL
- POTASSIUM [2]: 5.72 MEQ/L
- SODIUM [2]: 141.62 MEQ/L
- TOTAL BILIRUBIN [2]: 0.1 mg/dL
- TOTAL PROTEIN [2]: 5.67 G/DL
- URIC ACID [2]: 0.52 mg/dL
- ABSOLUTE BASOPHIL [3]: 0 CELLS/uL
- ABSOLUTE EOSINOPHIL [3]: 88 CELLS/uL
- ABSOLUTE LYMPHOCYTE [3]: 7063.33 CELLS/uL
- ABSOLUTE MONOCYTE [3]: 150.67 CELLS/uL
- ABSOLUTE SEGMENTED NEUTROPHIL [3]: 964.67 CELLS/uL
- BASOPHIL [3]: 0%
- EOSINOPHIL [3]: 1%
- ERYTHROCYTE COUNT [3]: 5.19 x10E6/uL
- HEMATOCRIT [3]: 32.23%
- HEMOGLOBIN [3]: 12.9 G/DL
- LEUKOCYTE COUNT [3]: 8.27 x10E3/uL
- LYMPHOCYTE [3]: 86%
- MEAN CORPUSCULAR HEMOGLOBIN [3]: 24.93 pg
- MEAN CORPUSCULAR HEMOGLOBIN CONCENTRATION [3]: 40.13 G/DL
- MEAN CORPUSCULAR VOLUME [3]: 62.1 fL
- MONOCYTE [3]: 1.67%
- NEUTROPHIL [3]: 11.33%
- NUCLEATED RED BLOOD CELLS [3]: 0 /100WBC
- PLATELET COUNT [3]: 924.33 x10E3/uL
- ALANINE AMINOTRANSFERASE [3]: 226.67 u/L
- ALBUMIN [3]: 4.2 G/DL
- ALKALINE PHOSPHATASE [3]: 729 u/L
- ASPARTATE AMINOTRANSFERASE [3]: 518.67 u/L
- BLOOD UREA NITROGEN [3]: 15 mg/dL
- CARBON DIOXIDE [3]: 26.33 mmol/L
- CHLORIDE [3]: 103 MEQ/L
- CHOLESTEROL [3]: 70.67 mg/dL
- CREATINE PHOSPHOKINASE [3]: 416.67 u/L
- CREATININE [3]: 0.17 mg/dL
- GLUCOSE [3]: 160 mg/dL
- LACTATE DEHYDROGENASE [3]: 414.67 u/L
- LIPASE [3]: 12 u/L
- PHOSPHORUS [3]: 10 mg/dL
- POTASSIUM [3]: 4.92 MEQ/L
- SODIUM [3]: 144.23 MEQ/L
- TOTAL BILIRUBIN [3]: 0.37 mg/dL
- TOTAL PROTEIN [3]: 5.67 G/DL
- URIC ACID [3]: 0.67 mg/dL
